# Laboratory results taken from patent US6528538B1, “Cyclic compounds useful in the treatment of dyslipidaemia, atherosclerosis and diabetes, pharamaceutical compositions and preparation process” (Merck Patentgesellschaft, priority 1998, dated 2003).
row,SMILES,melting point [°C]
1,O=C(O)C1OCC2(CO1)c1ccccc1-c1ccccc12,158 to 160
2,O=C(O)C1OCC2(CCC2c2ccc(Cl)cc2)CO1 (stereo not drawn),171
3,CCOC(=O)C1(c2ccc(Cl)cc2)OCC2(CCC2)CO1,117
